Common to all, as to assay: biochemical
What all share (format): biochemical

For test [1], the target named is T1, 382 unique human kinases (Homo sapiens, UniProt Q15303).
T1 construct: purchased Reaction Biology (HotSpot contract assay)
The note with it: kinase ERBB4/HER4, compound 10 uM; for remaining activity at 10 µM: read-out: % Enzyme Activity (relative to DMSO controls).

In test [2] the target is T2, 382 unique human kinases (Homo sapiens, UniProt P36897).
T2 construct: purchased Reaction Biology (HotSpot contract assay)
T2 sequence (P36897 34-503): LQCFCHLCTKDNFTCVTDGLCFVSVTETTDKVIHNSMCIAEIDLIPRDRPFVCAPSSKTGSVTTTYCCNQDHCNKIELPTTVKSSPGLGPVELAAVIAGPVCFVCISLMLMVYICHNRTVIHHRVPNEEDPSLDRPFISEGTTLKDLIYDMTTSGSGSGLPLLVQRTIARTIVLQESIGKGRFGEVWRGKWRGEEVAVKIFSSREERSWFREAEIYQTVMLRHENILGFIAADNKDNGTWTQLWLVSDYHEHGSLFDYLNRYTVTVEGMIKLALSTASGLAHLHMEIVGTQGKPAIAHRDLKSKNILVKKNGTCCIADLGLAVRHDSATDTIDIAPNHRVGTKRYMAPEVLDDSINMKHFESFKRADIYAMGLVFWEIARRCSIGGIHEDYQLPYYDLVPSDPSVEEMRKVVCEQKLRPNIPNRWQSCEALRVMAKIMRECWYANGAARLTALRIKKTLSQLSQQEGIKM
To be noted: kinase ALK5/TGFBR1, compound 10 uM; for remaining activity at 10 µM: read-out: % Enzyme Activity (relative to DMSO controls).

Test [3] deals with T3, 382 unique human kinases (Homo sapiens, UniProt Q02750, P124L).
T3 construct: purchased Reaction Biology (HotSpot contract assay)
The note with it: MEK1 (P124L), 10 uM; for remaining activity at 10 µM: read-out: % Enzyme Activity (relative to DMSO controls).

Test [4] concerns the target T4, 382 unique human kinases (Homo sapiens, UniProt Q9UM73, L1196M).
T4 construct: purchased Reaction Biology (HotSpot contract assay)
To be noted: ALK (L1196M), 10 uM; for remaining activity at 10 µM: read-out: % Enzyme Activity (relative to DMSO controls).

The target of test [5] is T5, 382 unique human kinases (Homo sapiens, UniProt Q6DT37).
T5 construct: purchased Reaction Biology (HotSpot contract assay)
The note with it: DMPK2, 10 uM; for remaining activity at 10 µM: read-out: % Enzyme Activity (relative to DMSO controls).

Test [6] concerns the target T6, 382 unique human kinases (Homo sapiens, UniProt Q6P5Z2).
T6 construct: purchased Reaction Biology (HotSpot contract assay)
The note with it: kinase PKN3/PRK3, compound 10 uM; for remaining activity at 10 µM: read-out: % Enzyme Activity (relative to DMSO controls).

Test [7] concerns the target T7, 382 unique human kinases (Homo sapiens, UniProt P07949, L790F).
T7 construct: purchased Reaction Biology (HotSpot contract assay)
The note with it: RET (L790F), 10 uM; for remaining activity at 10 µM: read-out: % Enzyme Activity (relative to DMSO controls).

Test [8] has as its target T8, 382 unique human kinases (Homo sapiens, UniProt P00533, L861Q).
T8 construct: purchased Reaction Biology (HotSpot contract assay)
The note with it: kinase EGFR (L861Q), compound 10 uM; for remaining activity at 10 µM: read-out: % Enzyme Activity (relative to DMSO controls).

Test [9] deals with T9, 382 unique human kinases (Homo sapiens, UniProt O75582).
T9 construct: purchased Reaction Biology (HotSpot contract assay)
T9 sequence (O75582 whole entry): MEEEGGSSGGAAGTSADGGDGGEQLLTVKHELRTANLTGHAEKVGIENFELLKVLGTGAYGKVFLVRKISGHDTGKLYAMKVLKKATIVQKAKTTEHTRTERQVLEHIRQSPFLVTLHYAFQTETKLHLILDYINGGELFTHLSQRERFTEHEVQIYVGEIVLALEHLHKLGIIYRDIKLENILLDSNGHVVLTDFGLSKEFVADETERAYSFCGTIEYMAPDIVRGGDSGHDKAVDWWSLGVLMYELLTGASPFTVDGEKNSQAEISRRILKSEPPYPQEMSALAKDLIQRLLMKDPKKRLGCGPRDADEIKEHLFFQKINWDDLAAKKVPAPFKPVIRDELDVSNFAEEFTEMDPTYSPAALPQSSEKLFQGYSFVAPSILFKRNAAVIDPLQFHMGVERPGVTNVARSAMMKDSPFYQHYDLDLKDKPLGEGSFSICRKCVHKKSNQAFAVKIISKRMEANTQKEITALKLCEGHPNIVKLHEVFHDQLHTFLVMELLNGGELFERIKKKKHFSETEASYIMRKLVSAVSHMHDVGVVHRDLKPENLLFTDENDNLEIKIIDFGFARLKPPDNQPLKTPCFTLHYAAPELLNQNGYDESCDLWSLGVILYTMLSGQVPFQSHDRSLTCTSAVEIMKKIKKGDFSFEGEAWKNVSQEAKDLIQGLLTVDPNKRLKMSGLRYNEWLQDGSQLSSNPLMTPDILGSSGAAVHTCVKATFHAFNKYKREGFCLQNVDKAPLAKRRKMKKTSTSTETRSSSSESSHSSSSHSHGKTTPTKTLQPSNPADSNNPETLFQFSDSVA
The note with it: kinase MSK1/RPS6KA5, compound 10 uM; for remaining activity at 10 µM: read-out: % Enzyme Activity (relative to DMSO controls).

Test [10] has as its target T10, 382 unique human kinases (Homo sapiens, UniProt Q9H4A3).
T10 construct: purchased Reaction Biology (HotSpot contract assay)
To be noted: WNK1, 10 uM; for remaining activity at 10 µM: read-out: % Enzyme Activity (relative to DMSO controls).

Test [11] concerns the target T11, 382 unique human kinases (Homo sapiens, UniProt P08581, D1228H).
T11 construct: purchased Reaction Biology (HotSpot contract assay)
The note with it: c-MET (D1228H), 10 uM; for remaining activity at 10 µM: read-out: % Enzyme Activity (relative to DMSO controls).

Test [12] concerns the target T12, 382 unique human kinases (Homo sapiens, UniProt Q9H2K8).
T12 construct: purchased Reaction Biology (HotSpot contract assay)
T12 sequence (Q9H2K8 1-898): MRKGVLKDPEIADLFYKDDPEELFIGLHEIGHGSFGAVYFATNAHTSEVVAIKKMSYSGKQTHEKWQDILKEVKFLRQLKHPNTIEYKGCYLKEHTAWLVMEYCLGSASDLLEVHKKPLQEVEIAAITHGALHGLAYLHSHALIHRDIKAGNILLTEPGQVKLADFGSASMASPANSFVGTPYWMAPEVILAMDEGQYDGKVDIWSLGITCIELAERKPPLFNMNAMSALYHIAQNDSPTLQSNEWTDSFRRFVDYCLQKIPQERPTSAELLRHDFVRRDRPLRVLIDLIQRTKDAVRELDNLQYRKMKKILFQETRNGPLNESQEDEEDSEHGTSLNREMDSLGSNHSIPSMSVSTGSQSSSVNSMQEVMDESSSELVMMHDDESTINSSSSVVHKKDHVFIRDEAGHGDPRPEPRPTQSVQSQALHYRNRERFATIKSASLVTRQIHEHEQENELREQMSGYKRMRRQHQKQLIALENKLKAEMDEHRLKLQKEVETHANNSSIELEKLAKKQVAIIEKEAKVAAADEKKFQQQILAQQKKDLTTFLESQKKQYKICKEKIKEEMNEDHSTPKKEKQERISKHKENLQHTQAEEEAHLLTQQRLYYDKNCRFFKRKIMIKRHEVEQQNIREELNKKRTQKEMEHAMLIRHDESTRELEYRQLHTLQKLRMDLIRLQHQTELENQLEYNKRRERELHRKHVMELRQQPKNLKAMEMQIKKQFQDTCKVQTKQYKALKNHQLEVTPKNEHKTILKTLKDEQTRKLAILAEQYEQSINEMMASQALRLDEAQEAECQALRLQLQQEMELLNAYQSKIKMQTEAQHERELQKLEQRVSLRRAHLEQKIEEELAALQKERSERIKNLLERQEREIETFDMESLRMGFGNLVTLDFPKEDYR
To be noted: TAOK3/JIK, 10 uM; for remaining activity at 10 µM: read-out: % Enzyme Activity (relative to DMSO controls).

Test [13] addresses T13, 382 unique human kinases (Homo sapiens, UniProt P10721, Y823D).
T13 construct: purchased Reaction Biology (HotSpot contract assay)
To be noted: c-Kit (Y823D), [ATP] 100 µM, compound 10 uM; for remaining activity at 10 µM: read-out: % Enzyme Activity (relative to DMSO controls).

Test [14] deals with T14, 382 unique human kinases (Homo sapiens, UniProt Q06187, C481S).
T14 construct: purchased Reaction Biology (HotSpot contract assay)
To be noted: BTK (C481S), [ATP] 15 µM, compound 10 uM; for remaining activity at 10 µM: read-out: % Enzyme Activity (relative to DMSO controls).

Test [15] has as its target T15, 382 unique human kinases (Homo sapiens, UniProt P07948).
T15 construct: purchased Reaction Biology (HotSpot contract assay)
To be noted: LYN, [ATP] 15 µM, compound 10 uM; for remaining activity at 10 µM: read-out: % Enzyme Activity (relative to DMSO controls).

Test [16] deals with T16, 382 unique human kinases (Homo sapiens, UniProt P16234, D842V).
T16 construct: purchased Reaction Biology (HotSpot contract assay)
T16 sequence (P16234 24-1089 D842V): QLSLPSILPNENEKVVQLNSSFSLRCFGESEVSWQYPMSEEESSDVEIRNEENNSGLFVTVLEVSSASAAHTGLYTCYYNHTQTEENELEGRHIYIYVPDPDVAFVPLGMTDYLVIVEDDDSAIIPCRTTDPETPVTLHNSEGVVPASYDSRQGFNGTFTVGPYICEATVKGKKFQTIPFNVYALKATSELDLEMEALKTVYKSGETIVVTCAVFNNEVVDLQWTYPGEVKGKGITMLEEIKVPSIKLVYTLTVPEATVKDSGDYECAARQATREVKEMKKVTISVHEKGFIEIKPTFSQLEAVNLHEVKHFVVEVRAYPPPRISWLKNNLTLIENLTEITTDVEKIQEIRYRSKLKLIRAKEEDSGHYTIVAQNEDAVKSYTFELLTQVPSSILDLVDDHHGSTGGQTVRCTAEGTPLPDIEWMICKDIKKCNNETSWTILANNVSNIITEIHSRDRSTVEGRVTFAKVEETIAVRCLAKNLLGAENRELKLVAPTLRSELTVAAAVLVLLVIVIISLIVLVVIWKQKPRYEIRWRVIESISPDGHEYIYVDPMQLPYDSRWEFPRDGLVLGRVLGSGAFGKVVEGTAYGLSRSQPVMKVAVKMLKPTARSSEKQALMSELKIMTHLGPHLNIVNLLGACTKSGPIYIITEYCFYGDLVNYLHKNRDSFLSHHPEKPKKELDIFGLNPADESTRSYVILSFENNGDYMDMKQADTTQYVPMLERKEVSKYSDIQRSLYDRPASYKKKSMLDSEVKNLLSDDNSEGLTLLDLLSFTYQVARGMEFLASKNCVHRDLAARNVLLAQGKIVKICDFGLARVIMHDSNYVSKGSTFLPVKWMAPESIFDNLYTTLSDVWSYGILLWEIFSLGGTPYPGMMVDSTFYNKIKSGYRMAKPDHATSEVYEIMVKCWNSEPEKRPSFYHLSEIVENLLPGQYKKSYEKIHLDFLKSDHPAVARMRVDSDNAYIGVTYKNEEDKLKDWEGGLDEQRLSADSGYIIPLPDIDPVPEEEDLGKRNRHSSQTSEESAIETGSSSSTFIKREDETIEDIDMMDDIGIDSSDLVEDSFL
To be noted: PDGFRa (D842V), [ATP] 1 µM, compound 10 uM; for remaining activity at 10 µM: read-out: % Enzyme Activity (relative to DMSO controls).

Test [17] has as its target T17, 382 unique human kinases (Homo sapiens, UniProt Q9UM73, L1152R).
T17 construct: purchased Reaction Biology (HotSpot contract assay)
To be noted: ALK (L1152R), [ATP] 30 µM, compound 10 uM; for remaining activity at 10 µM: read-out: % Enzyme Activity (relative to DMSO controls).

The structures appear in SMILES notation.

Results on four compounds are retold here after PMC8550792, “Evolution of kinase polypharmacology across HSP90 drug discovery” (Cell Chemical Biology, 2021).

T15 sequence (P07948 whole entry): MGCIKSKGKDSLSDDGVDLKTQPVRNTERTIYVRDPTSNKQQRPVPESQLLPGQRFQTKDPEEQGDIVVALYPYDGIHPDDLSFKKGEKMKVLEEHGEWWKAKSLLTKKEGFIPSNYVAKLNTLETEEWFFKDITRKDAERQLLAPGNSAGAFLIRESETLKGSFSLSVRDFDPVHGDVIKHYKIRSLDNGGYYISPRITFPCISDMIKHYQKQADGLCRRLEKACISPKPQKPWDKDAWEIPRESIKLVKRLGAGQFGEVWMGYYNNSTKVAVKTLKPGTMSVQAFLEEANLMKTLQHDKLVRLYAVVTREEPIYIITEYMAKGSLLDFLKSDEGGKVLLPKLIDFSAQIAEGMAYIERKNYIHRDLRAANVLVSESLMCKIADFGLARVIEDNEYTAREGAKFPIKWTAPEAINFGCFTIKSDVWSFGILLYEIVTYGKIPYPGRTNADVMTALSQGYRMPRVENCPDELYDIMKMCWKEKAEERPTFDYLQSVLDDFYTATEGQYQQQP
T7 sequence (P07949 29-1114 L790F): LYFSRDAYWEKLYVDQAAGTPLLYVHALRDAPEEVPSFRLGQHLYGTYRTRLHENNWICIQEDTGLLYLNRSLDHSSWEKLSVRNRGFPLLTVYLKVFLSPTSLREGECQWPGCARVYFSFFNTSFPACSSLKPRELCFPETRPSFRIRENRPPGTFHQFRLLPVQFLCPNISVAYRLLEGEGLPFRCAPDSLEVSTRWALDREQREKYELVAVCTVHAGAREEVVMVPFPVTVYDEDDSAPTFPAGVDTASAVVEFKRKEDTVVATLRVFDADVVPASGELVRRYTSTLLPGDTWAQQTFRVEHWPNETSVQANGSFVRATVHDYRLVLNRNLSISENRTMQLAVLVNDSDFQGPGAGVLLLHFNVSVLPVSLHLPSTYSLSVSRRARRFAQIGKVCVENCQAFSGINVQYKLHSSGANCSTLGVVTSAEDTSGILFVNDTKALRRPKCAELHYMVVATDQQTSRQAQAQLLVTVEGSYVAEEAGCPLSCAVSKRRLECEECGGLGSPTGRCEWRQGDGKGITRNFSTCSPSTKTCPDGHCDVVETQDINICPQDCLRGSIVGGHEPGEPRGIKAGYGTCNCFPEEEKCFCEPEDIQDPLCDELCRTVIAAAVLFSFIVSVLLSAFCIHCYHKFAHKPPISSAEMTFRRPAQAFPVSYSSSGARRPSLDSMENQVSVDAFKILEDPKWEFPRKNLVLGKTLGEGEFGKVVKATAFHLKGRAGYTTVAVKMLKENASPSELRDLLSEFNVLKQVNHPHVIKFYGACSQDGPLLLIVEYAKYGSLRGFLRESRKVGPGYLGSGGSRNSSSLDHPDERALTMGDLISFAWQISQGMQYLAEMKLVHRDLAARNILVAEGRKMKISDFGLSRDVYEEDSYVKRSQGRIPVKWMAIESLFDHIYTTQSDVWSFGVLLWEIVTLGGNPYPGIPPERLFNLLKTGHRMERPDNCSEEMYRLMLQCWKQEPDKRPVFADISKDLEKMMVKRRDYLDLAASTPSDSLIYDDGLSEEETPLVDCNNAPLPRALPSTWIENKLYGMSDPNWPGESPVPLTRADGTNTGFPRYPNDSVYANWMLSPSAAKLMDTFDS
T4 sequence (Q9UM73 19-1620 L1196M): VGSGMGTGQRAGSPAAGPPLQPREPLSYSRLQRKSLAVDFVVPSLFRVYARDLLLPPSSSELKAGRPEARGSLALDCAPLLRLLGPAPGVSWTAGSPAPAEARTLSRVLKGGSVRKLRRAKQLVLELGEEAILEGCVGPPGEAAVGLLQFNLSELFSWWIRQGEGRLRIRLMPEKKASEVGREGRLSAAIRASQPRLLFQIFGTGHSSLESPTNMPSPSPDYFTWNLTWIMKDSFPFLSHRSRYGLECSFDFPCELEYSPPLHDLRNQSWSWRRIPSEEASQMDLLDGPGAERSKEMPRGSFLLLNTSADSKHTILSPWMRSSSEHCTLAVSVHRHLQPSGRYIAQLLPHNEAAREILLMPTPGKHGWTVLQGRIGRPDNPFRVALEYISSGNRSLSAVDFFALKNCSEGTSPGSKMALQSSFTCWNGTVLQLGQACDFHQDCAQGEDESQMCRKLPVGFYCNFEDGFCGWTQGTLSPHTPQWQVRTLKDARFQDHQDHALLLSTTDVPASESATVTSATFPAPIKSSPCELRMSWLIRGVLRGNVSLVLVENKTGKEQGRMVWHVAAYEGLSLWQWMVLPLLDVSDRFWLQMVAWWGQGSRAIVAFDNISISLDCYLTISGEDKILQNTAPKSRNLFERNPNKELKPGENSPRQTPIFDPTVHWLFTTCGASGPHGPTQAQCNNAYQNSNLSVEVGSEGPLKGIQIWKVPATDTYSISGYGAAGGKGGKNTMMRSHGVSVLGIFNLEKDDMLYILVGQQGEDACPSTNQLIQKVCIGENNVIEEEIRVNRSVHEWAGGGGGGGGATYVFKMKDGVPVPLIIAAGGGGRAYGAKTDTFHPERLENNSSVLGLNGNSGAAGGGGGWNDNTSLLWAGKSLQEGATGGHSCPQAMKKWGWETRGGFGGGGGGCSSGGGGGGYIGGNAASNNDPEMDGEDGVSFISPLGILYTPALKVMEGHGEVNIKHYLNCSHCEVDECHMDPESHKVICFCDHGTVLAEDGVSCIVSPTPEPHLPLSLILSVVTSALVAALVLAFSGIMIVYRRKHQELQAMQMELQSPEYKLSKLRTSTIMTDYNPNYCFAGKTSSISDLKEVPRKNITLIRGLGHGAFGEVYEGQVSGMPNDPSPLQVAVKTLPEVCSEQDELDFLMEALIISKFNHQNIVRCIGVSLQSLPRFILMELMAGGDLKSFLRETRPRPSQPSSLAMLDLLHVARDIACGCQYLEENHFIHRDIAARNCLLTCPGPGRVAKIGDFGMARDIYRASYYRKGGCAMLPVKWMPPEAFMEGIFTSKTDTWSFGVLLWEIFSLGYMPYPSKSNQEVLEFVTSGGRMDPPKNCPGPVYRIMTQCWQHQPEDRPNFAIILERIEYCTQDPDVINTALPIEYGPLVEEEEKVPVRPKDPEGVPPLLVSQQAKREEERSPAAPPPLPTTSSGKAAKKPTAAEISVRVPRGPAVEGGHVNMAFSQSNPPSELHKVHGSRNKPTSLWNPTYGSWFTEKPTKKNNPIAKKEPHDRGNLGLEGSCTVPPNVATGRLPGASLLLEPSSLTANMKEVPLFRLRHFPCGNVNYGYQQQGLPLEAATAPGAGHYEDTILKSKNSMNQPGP
T17 sequence (Q9UM73 19-1620 L1152R): as the sequence (Q9UM73 19-1620 L1196M) above, with L1134R, M1178L counted along it

In the case of `CC(C)c1cc(-c2n[nH]c(=O)n2-c2ccc3c(ccn3C)c2)c(O)cc1O` [Ganetespib (STA9090)], the remaining activity at 10 µM worked out at 88.8% on 382 unique human kinases [1]; 90.1% at 382 unique human kinases [2]; 73.7% on 382 unique human kinases [3]; 70.2% on 382 unique human kinases [4]; 75.6% on 382 unique human kinases [5]; 83.9% on 382 unique human kinases [6]. The remaining activity at 10 µM was 68.1% on 382 unique human kinases [7], 90.9% on 382 unique human kinases [8], 81% on 382 unique human kinases [9] and 94.2% on 382 unique human kinases [10].

Consider `CC(C)c1cc(-c2n[nH]c(=O)n2-c2ccc3c(ccn3C)c2)c(O)cc1O` [Ganetespib], for which the remaining activity at 10 µM at 382 unique human kinases [11] amounted to 98.6%; at 382 unique human kinases [12], 126%; at 382 unique human kinases [13] it was 49.7%; at 382 unique human kinases [14], 65%; at 382 unique human kinases [15], 21.7%; at 382 unique human kinases [16], 76.2%. Also, the remaining activity at 10 µM on 382 unique human kinases [17] stood at 14.2%.

With `CCNC(=O)c1noc(-c2cc(C(C)C)c(O)cc2O)c1-c1ccc(CN2CCOCC2)cc1` [Luminespib (AUY-922)], the “% Enzyme Activity (relative to DMSO controls)” value was found to be 92.70% at 382 unique human kinases [1]; 93.53% at 382 unique human kinases [2]; 99.77% on 382 unique human kinases [3]; 98.66% on 382 unique human kinases [4]; 113.14% at 382 unique human kinases [5]; 102.60% on 382 unique human kinases [6]. Also, the “% Enzyme Activity (relative to DMSO controls)” value at 382 unique human kinases [7] is listed as 91.09%; at 382 unique human kinases [8], 100.91%; on 382 unique human kinases [9] it was 109.40%; on 382 unique human kinases [10] it was 68.64%. In addition, the remaining activity at 10 µM turned out to be 92.8% on 382 unique human kinases [1]; 94.7% at 382 unique human kinases [2]; 102% on 382 unique human kinases [3]; 100% at 382 unique human kinases [4]; 114% at 382 unique human kinases [5]; 104% at 382 unique human kinases [6]. The remaining activity at 10 µM at 382 unique human kinases [7] amounted to 91.5%; at 382 unique human kinases [8], 104%; at 382 unique human kinases [9], 111%; at 382 unique human kinases [10] it was 70.4%.

Take `CCNC(=O)c1noc(-c2cc(C(C)C)c(O)cc2O)c1-c1ccc(CN2CCOCC2)cc1` [Luminespib]: the “% Enzyme Activity (relative to DMSO controls)” value on 382 unique human kinases [11] stood at 91.15%; at 382 unique human kinases [12] it was 98.33%; at 382 unique human kinases [13] it was 59.05%; on 382 unique human kinases [14], 41.81%; on 382 unique human kinases [15], 38.08%; at 382 unique human kinases [16], 50.60%. Further, on 382 unique human kinases [17], the “% Enzyme Activity (relative to DMSO controls)” value was found to be 90.08%. Besides, the remaining activity at 10 µM was 92.4% at 382 unique human kinases [11]; 100% at 382 unique human kinases [12]; 60.2% at 382 unique human kinases [13]; 43.2% on 382 unique human kinases [14]; 39.2% at 382 unique human kinases [15]; 59.9% at 382 unique human kinases [16]. For the same compound, at 382 unique human kinases [17], the remaining activity at 10 µM was determined as 90.7%.
